Measured values: PubChem BioAssay AID434951 (Broad Institute, 2010)
The source made the active and inactive calls.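 How the source made its calls: active means a fitted half-maximal concentration EC50 for the rise in nuclear signal no higher than ten times the top dose tested; inconclusive means flat fit with activity between 30% and 70%, or unusable fit; inactive means EC50 beyond ten times the top dose.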

These compounds were tested against Hypoxia-inducible factor 1-alpha (Homo sapiens) (UniProt Q16665) (assay: HIF pathway activation, GFP-HIF1alpha translocation – imaging, fluorescence, U2OS GFP-HIF1alpha, confirmation (AID 434951)). Settings: U2OS GFP-HIF1alpha nuclear intensity, high-content imaging.
Hypoxia-inducible factor 1-alpha (Homo sapiens), sequence (Q16665 whole entry, looked up): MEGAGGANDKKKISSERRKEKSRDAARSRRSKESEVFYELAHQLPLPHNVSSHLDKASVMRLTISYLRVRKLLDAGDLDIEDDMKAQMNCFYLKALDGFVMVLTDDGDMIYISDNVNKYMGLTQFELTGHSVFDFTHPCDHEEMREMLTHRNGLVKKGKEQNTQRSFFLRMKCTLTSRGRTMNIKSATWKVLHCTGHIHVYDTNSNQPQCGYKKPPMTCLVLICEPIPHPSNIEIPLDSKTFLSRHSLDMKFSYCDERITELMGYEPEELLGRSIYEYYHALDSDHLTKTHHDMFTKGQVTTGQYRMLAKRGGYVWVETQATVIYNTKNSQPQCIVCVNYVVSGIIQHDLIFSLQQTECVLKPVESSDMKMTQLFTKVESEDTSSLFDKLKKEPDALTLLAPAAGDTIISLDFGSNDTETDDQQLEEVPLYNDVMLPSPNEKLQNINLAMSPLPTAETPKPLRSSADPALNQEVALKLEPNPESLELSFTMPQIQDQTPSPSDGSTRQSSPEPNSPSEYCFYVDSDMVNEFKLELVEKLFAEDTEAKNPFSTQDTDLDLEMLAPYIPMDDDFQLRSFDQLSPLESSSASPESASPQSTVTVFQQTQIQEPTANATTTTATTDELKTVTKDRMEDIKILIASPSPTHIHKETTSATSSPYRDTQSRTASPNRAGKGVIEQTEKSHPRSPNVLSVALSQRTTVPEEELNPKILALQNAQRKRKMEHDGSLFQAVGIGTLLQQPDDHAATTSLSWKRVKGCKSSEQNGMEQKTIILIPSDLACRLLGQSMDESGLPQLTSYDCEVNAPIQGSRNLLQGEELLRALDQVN

| Structure (SMILES) | EC50 |
| --- | --- |
| CSc1sc(C(=O)N2CCCCC2)c(-c2cccs2)c1C#N | > 35 µM (inactive) |
| Cc1ccc2nc(SCC(=O)N3CCCCCC3)nc(=O)n2c1 | > 35 µM (inactive) |
| CCOC(=O)c1cc2c(ccn2C)n1CC(=O)N1CCN(c2ccccc2)CC1 | > 35 µM (inactive) |
| COc1ccc(/C=C2\SC(=O)N(CCC(=O)N(C)C3CCS(=O)(=O)C3)C2=O)cc1 (configuration not stated) | > 35 µM (inactive) |
| COc1ccc(C(=O)CSc2nncn2C)cc1 | > 35 µM (inactive) |
| COc1cccc2sc(N3CCN(C(=O)c4ccc([N+](=O)[O-])o4)CC3)nc12 | > 35 µM (inactive) |
| CC(C(=O)Nc1ccccc1-c1ccccc1)N1CCN(C(=O)c2ccccc2)CC1 (configuration not stated) | > 35 µM (inactive) |
| COc1ccc(CC(=O)N2CCN(C(=O)Cc3ccc(OC)cc3)CC2)cc1 | > 35 µM (inactive) |
| CCc1ccc(NC(=O)CSc2ccc(-c3ccccn3)nn2)cc1 | 10.5 µM |
| CCOC(=O)c1c(-c2ccccc2)oc2ccc(OCC(O)CN(C)C)cc12 (configuration not stated) | 33.8 µM |
| COc1cc(C(=O)Oc2ccccc2/C=N/NC(=O)c2ccc(Cl)cc2)cc(OC)c1OC | 35.8 µM |
| CC(=O)NC(c1ccc(C(C)C)cc1)c1ccc2cccnc2c1O (configuration not stated) | 1.33 µM |
| COc1ccc(OC)c(NC(=O)CCc2nnc3ccc(NCc4ccco4)nn23)c1 | > 35 µM (inactive) |
| CN(Cc1ccccc1)C(=O)CC(=O)N(C)Cc1ccccc1 | > 35 µM (inactive) |
| CCN(CC)S(=O)(=O)c1cccc(C(=O)N/N=C(\C)c2ccc(O)cc2O)c1 | 2.12 µM |
| CCOc1ccccc1N1CCN(C(=S)NC(=O)C23CC4CC(CC(C4)C2)C3)CC1 | > 35 µM (inactive) |
| c1ccc(CSc2ccc(-c3ccccn3)nn2)cc1 | 5.92 µM |
| CC(=O)Cn1c(=O)c2c(nc3n2CCCN3Cc2ccccc2)n(C)c1=O | > 35 µM (inactive) |
| COc1ccc(NC(=S)N2CCN(C(=O)c3ccccc3)CC2)cc1 | > 35 µM (inactive) |
| Cc1ccc(NC(=S)N/C(=N/S(=O)(=O)c2ccccc2)c2ccccc2)cc1 | > 35 µM (inactive) |
| COc1ccc(-c2nc(C#N)c(N3CCN(C(=O)c4ccco4)CC3)o2)cc1OC | > 35 µM (inactive) |
| CCn1cc(C(=O)NCC(OC)OC)c(=O)c2cc(S(=O)(=O)N3CCC(C)CC3)ccc21 | > 35 µM (inactive) |
| N#Cc1ccccc1S(=O)(=O)N1CCN(c2cnccn2)CC1 | > 35 µM (inactive) |
| COc1ccc(NC(=O)CNC(=O)Cc2cccc3ccccc23)c(OC)c1 | > 35 µM (inactive) |
| COc1ccc(CSCC(=O)Nc2ccc(S(=O)(=O)N3CCCCCC3)cc2)cc1 | > 35 µM (inactive) |
| O=C(CSCC(=O)Nc1ccccc1)N/N=C/c1c(O)ccc2ccccc12 | 4.45 µM |

| Structure (SMILES) | EC50 |
| --- | --- |
| O=C(NCCSc1c[nH]c2ccccc12)c1ccc(Br)o1 | > 35 µM (inactive) |
| Cc1c(/C=N/NC(N)=O)c2ccccn2c1C(=O)c1ccncc1 | > 35 µM (inactive) |
| Cc1ccc(S(=O)(=O)c2nc(-c3ccccc3Cl)oc2N(C)C)cc1 | > 35 µM (inactive) |
| COc1cccc(C(=O)SC2=NCCS2)c1 | > 35 µM (inactive) |
| O=C(N/N=C/c1cc(Br)ccc1O)C(c1ccncc1)N1CCOCC1 (configuration not stated) | > 35 µM (inactive) |
| Cc1cc2ccc3ccccc3c2cc1CN(C)C | > 35 µM (inactive) |
| O=c1c2ccccc2nc2c3ccccc3c(NCCN3CCOCC3)nn12 | > 35 µM (inactive) |
| COc1ccc(NC(=O)CCC(=O)N(Cc2ccc(OC)c(OC)c2)c2nccs2)cc1 | > 35 µM (inactive) |
| Cc1cc(N/C=C/C(=O)c2ccc(Br)cc2)no1 | > 35 µM (inactive) |
| N/C(=N\OC(=O)C(c1ccccc1)c1ccccc1)c1cccnc1 | > 35 µM (inactive) |
| CCCC(=O)NC(c1ccccc1Cl)c1ccc2cccnc2c1O (configuration not stated) | 6.66 µM |
| Cc1nc(C)c(C(=O)N/N=C/c2cc(Br)ccc2O)s1 | 7.18 µM |
| CC(C)CC1NC(=O)N(Cc2cc(=O)n3ccsc3n2)C1=O (configuration not stated) | > 35 µM (inactive) |
| C=CCNc1nc(-c2ccccn2)nnc1-c1ccccc1 | 7.41 µM |
| CC1CC(C)CN(S(=O)(=O)c2ccc3c(c2)oc(=O)n3CC(=O)NCCCOC(C)C)C1 (configuration not stated) | > 35 µM (inactive) |
| Cc1ccc(NC(=O)N2CCC(NC(=O)c3cccc(C)c3)CC2)cc1 | > 35 µM (inactive) |
| O=C(N/N=C(\c1ccccc1)c1ccccn1)c1cccc([N+](=O)[O-])c1 | 0.629 µM |
| CCCOc1ccc(/C=N/NC(=O)CSc2ccccn2)cc1OC | > 35 µM (inactive) |
| CSc1ccc(/C=N/Nc2ccc(Cl)c(C(=O)O)c2)cc1 | > 35 µM (inactive) |
| OCc1ccc(N=Nc2ccccc2)cc1 | > 35 µM (inactive) |
| COc1cccc(NC(=S)N(CCCN2CCOCC2)Cc2cn(C)c3ccccc23)c1 | > 35 µM (inactive) |
| O=C(CN1CCC(C(=O)c2ccc(Cl)cc2)CC1)Nc1ccc2c(c1)OCCO2 | > 35 µM (inactive) |
| Fc1cccc(/C=N/Nc2nccnc2Cl)c1 | > 35 µM (inactive) |
| CCc1cnccc1CCC(=O)Nc1ccccc1C | > 35 µM (inactive) |
| COc1ccccc1CNC(=O)c1cccc(NC(=O)c2ccccc2)c1 | > 35 µM (inactive) |
| Cc1ccc(/C(=N/Nc2ncnc3ccccc23)C(=O)O)cc1 | > 35 µM (inactive) |
